In PubChem BioAssay AID1259407 (Chemical Carcinogenesis Research Information System (CCRIS), 2018) one finds mutagenic call data, which are given here for ten molecules.

The series relates to CCRIS mutagenicity, Ames/micronucleus/aberration tests. Description: CCRIS mutagenicity studies.
Where [1] appears, read: Test System: AMES SALMONELLA TYPHIMURIUM, Strain/Indicator: TA98, Metabolic Activation: NONE, Method: STANDARD PLATE.
Setting [2] is: Test System: AMES SALMONELLA TYPHIMURIUM, Strain/Indicator: TA100, Metabolic Activation: NONE, Method: STANDARD PLATE.
[3] abbreviates: Test System: AMES SALMONELLA TYPHIMURIUM, Strain/Indicator: TA1535, Metabolic Activation: NONE, Method: STANDARD PLATE.
Where [4] appears, read: Test System: AMES SALMONELLA TYPHIMURIUM, Strain/Indicator: TA1537, Metabolic Activation: NONE, Method: STANDARD PLATE.
Setting [5] is: Test System: AMES SALMONELLA TYPHIMURIUM, Strain/Indicator: TA98, Metabolic Activation: NONE, Method: PREINCUBATION
[6] abbreviates: Test System: AMES SALMONELLA TYPHIMURIUM, Strain/Indicator: TA98, Metabolic Activation: RAT, LIVER, S-9, AROCLOR 1254, Method: PREINCUBATION
The mark [7] stands for this setting: Test System: AMES SALMONELLA TYPHIMURIUM, Strain/Indicator: TA98, Metabolic Activation: RAT, LIVER, S-9, AROCLOR 1254, Method: STANDARD PLATE.
Where [8] appears, read: Test System: AMES SALMONELLA TYPHIMURIUM, Strain/Indicator: TA100, Metabolic Activation: NONE, Method: PREINCUBATION
[9] abbreviates: Test System: AMES SALMONELLA TYPHIMURIUM, Strain/Indicator: TA100, Metabolic Activation: RAT, LIVER, S-9, AROCLOR 1254, Method: PREINCUBATION
The mark [10] stands for this setting: Test System: AMES SALMONELLA TYPHIMURIUM, Strain/Indicator: TA100, Metabolic Activation: RAT, LIVER, S-9, AROCLOR 1254, Method: STANDARD PLATE.
The mark [11] stands for this setting: Test System: AMES SALMONELLA TYPHIMURIUM, Strain/Indicator: TA1535, Metabolic Activation: NONE, Method: PREINCUBATION
The mark [12] stands for this setting: Test System: AMES SALMONELLA TYPHIMURIUM, Strain/Indicator: TA1537, Metabolic Activation: RAT, LIVER, S-9, AROCLOR 1254, Method: STANDARD PLATE.

The source made the active and inactive calls. The rule behind the calls is not given here.

Consider `CCC1(CC(=O)O)OCCc2c1[nH]c1c(C)cccc21` (configuration not stated), for which the mutagenic call reads like this: under setting [1], “inactive; negative”; (Test System: AMES SALMONELLA TYPHIMURIUM, Strain/Indicator: TA98, Metabolic Activation: RAT, LIVER, S-9, Method: STANDARD PLATE) “inactive; negative”; under setting [2], “inactive; negative”; (Test System: AMES SALMONELLA TYPHIMURIUM, Strain/Indicator: TA100, Metabolic Activation: RAT, LIVER, S-9, Method: STANDARD PLATE) “inactive; negative”; under setting [3], “inactive; negative”; (Test System: AMES SALMONELLA TYPHIMURIUM, Strain/Indicator: TA1535, Metabolic Activation: RAT, LIVER, S-9, Method: STANDARD PLATE) “inactive; negative”. Besides, the mutagenic call is, setting by setting: under setting [4], “inactive; negative”; (Test System: AMES SALMONELLA TYPHIMURIUM, Strain/Indicator: TA1537, Metabolic Activation: RAT, LIVER, S-9, Method: STANDARD PLATE) “inactive; negative”; (Test System: E. COLI, Strain/Indicator: WP2 UVRA, Metabolic Activation: NONE, Method: STANDARD PLATE) “inactive; negative”; (Test System: E. COLI, Strain/Indicator: WP2 UVRA, Metabolic Activation: RAT, LIVER, S-9, Method: STANDARD PLATE) “inactive; negative”.
Consider `COC(=O)C(C)=Cc1ccc([N+](=O)[O-])o1`, for which the mutagenic call under setting [5] is “active; positive”.
Consider `O=c1[nH]c(=O)[nH]c(=O)[nH]1`, for which the mutagenic call reads like this: (Test System: AMES SALMONELLA TYPHIMURIUM, Strain/Indicator: TA98, Metabolic Activation: HAMSTER, LIVER, S-9, AROCLOR 1254, Method: PREINCUBATION) “inactive; negative”; under setting [5], “inactive; negative”; under setting [1], “inactive; negative”; under setting [6], “inactive; negative”; under setting [7], “inactive; negative”; (Test System: AMES SALMONELLA TYPHIMURIUM, Strain/Indicator: TA100, Metabolic Activation: HAMSTER, LIVER, S-9, AROCLOR 1254, Method: PREINCUBATION) “inactive; negative”. The mutagenic call is “inactive; negative” under setting [8]; “inactive; negative” under setting [2]; “inactive; negative” under setting [9]; “inactive; negative” under setting [10]; “inactive; negative” (Test System: AMES SALMONELLA TYPHIMURIUM, Strain/Indicator: TA1535, Metabolic Activation: HAMSTER, LIVER, S-9, AROCLOR 1254, Method: PREINCUBATION); “inactive; negative” under setting [11]. In addition, the mutagenic call runs as follows: under setting [3], “inactive; negative”; (Test System: AMES SALMONELLA TYPHIMURIUM, Strain/Indicator: TA1535, Metabolic Activation: RAT, LIVER, S-9, AROCLOR 1254, Method: PREINCUBATION) “inactive; negative”; (Test System: AMES SALMONELLA TYPHIMURIUM, Strain/Indicator: TA1535, Metabolic Activation: RAT, LIVER, S-9, AROCLOR 1254, Method: STANDARD PLATE) “inactive; negative”; (Test System: AMES SALMONELLA TYPHIMURIUM, Strain/Indicator: TA1537, Metabolic Activation: HAMSTER, LIVER, S-9, AROCLOR 1254, Method: PREINCUBATION) “inactive; negative”; (Test System: AMES SALMONELLA TYPHIMURIUM, Strain/Indicator: TA1537, Metabolic Activation: NONE, Method: PREINCUBATION) “inactive; negative”; under setting [4], “inactive; negative”. Besides, the mutagenic call was “inactive; negative” (Test System: AMES SALMONELLA TYPHIMURIUM, Strain/Indicator: TA1537, Metabolic Activation: RAT, LIVER, S-9, AROCLOR 1254, Method: PREINCUBATION); “inactive; negative” under setting [12]; “inactive; negative” (Test System: MOUSE LYMPHOMA, Strain/Indicator: L5178Y (TK+/TK-), Metabolic Activation: NONE, Method: SUSPENSION/PLATE); “inactive; negative” (Test System: MOUSE LYMPHOMA, Strain/Indicator: L5178Y (TK+/TK-), Metabolic Activation: RAT, LIVER, S-9, AROCLOR 1254, Method: SUSPENSION/PLATE).
`O=[N+]([O-])c1ccc2c3c1ccc1cccc(c13)[C@@H](O)[C@@H]2O`: the mutagenic call reads like this: under setting [5], “active; positive”; under setting [6], “active; positive”; under setting [8], “active; positive”; under setting [9], “active; positive”.
As for `c1ccc(-c2ccc(CC3CO3)cc2)cc1` (configuration not stated), the mutagenic call was “active; positive” under setting [8], “active; positive” under setting [2], “active; positive” under setting [11] and “active; positive” under setting [3].
Turning to `Cc1ccc(C)c(N)c1`, the mutagenic call is “inactive; negative” (Test System: AMES SALMONELLA TYPHIMURIUM, Strain/Indicator: TA97, Metabolic Activation: HAMSTER, LIVER, S-9, AROCLOR 1254 (10%), Method: PREINCUBATION); “inactive; negative” (Test System: AMES SALMONELLA TYPHIMURIUM, Strain/Indicator: TA97, Metabolic Activation: NONE, Method: PREINCUBATION); “inactive; negative” (Test System: AMES SALMONELLA TYPHIMURIUM, Strain/Indicator: TA97, Metabolic Activation: RAT, LIVER, S-9, AROCLOR 1254 (10%), Method: PREINCUBATION); “active; positive” (Test System: AMES SALMONELLA TYPHIMURIUM, Strain/Indicator: TA98, Metabolic Activation: HAMSTER, LIVER, S-9, AROCLOR 1254 (10%), Method: PREINCUBATION); “inactive; negative” under setting [5]; “active; positive” (Test System: AMES SALMONELLA TYPHIMURIUM, Strain/Indicator: TA98, Metabolic Activation: RAT, LIVER, S-9, AROCLOR 1254 (10%), Method: PREINCUBATION). Moreover, the mutagenic call by setting is: (Test System: AMES SALMONELLA TYPHIMURIUM, Strain/Indicator: TA100, Metabolic Activation: HAMSTER, LIVER, S-9, AROCLOR 1254 (10%), Method: PREINCUBATION) “active; positive”; under setting [8], “inactive; negative”; (Test System: AMES SALMONELLA TYPHIMURIUM, Strain/Indicator: TA100, Metabolic Activation: RAT, LIVER, S-9, AROCLOR 1254 (10%), Method: PREINCUBATION) “inactive; negative”; (Test System: AMES SALMONELLA TYPHIMURIUM, Strain/Indicator: TA1535, Metabolic Activation: HAMSTER, LIVER, S-9, AROCLOR 1254 (10%), Method: PREINCUBATION) “inactive; negative”; under setting [11], “inactive; negative”; (Test System: AMES SALMONELLA TYPHIMURIUM, Strain/Indicator: TA1535, Metabolic Activation: RAT, LIVER, S-9, AROCLOR 1254 (10%), Method: PREINCUBATION) “inactive; negative”. The mutagenic call was “active; positive” (Test System: AMES SALMONELLA TYPHIMURIUM, Strain/Indicator: TA1537, Metabolic Activation: HAMSTER, LIVER, S-9, AROCLOR 1254 (10%), Method: PREINCUBATION) and “inactive; negative” (Test System: AMES SALMONELLA TYPHIMURIUM, Strain/Indicator: TA1537, Metabolic Activation: RAT, LIVER, S-9, AROCLOR 1254 (10%), Method: PREINCUBATION).
Take `COC1C2C(=O)C34C(=O)c5c(O)cc(C)cc5C(=O)C35C3C(=O)C46C(=O)c4c(O)cc(C)cc4C(=O)C26C(C3OC)C15` (configuration not stated): the mutagenic call under setting [7] was “inactive; negative”, the mutagenic call under setting [10] is “inactive; negative” and the mutagenic call under setting [12] is “inactive; negative”.
Regarding `Nc1nc2ccc(Cl)cc2[nH]1`, the mutagenic call runs as follows: under setting [6], “inactive; negative”; under setting [9], “inactive; negative”.
As to `Clc1cnc2ccccc2c1`, under “Test System: AMES SALMONELLA TYPHIMURIUM, Strain/Indicator: TA100, Metabolic Activation: RAT, LIVER, S-9, PHENOBARBITAL AND 5,6-BENZOFLAVONE, Method: PREINCUBATION”, the mutagenic call was “inactive; negative”.
In the case of `O=S(=O)(O)OCc1c2ccccc2cc2c1ccc1ccccc12`, the mutagenic call under setting [5] is “active; positive”.
